Nine molecules from ChEMBL document CHEMBL4376904, “Bifunctional Pyrimidines as Modulators of Focal Adhesion Kinase” (ACS Med Chem Lett, 2020) can be followed below.

The species entered for one assay is Homo sapiens. As to the kind of experiment: Protac activity at E3 Ubiquitin-protein ligase/Focal adhesion kinase in human PC3 cells assessed as induction of FAK protein degradation by immunoblotting analysis relative to control. Format: cell-based. Background: In western blotting, separated proteins are transferred to a membrane and probed.
A short description of another assay: cells. The note with it: Homo sapiens, PC-3.

As a reminder, the Emax is the size of the effect at its maximum, as opposed to the concentration needed. Consider `Cc1ncsc1-c1ccc(CNC(=O)[C@@H]2C[C@@H](O)CN2C(=O)[C@@H](NC(=O)CCOCCOCCOc2ccc(Nc3ncc(C(F)(F)F)c(NCc4cccc(N(C)S(C)(=O)=O)c4)n3)cc2)C(C)(C)C)cc1`, for which, in the assay filed under Homo sapiens, the Emax was found to be 99%. For `Cc1ncsc1-c1ccc(CNC(=O)[C@@H]2C[C@@H](O)CN2C(=O)[C@@H](NC(=O)CCOCCCOc2ccc(Nc3ncc(C(F)(F)F)c(NCc4cccc(N(C)S(C)(=O)=O)c4)n3)cc2)C(C)(C)C)cc1`, the Emax in the assay filed under Homo sapiens is 99%. On to `CNC(=O)c1ccc(Nc2ncc(C(F)(F)F)c(NCc3nccnc3N(C)S(C)(=O)=O)n2)cc1`, for which the Emax in the assay listed under Homo sapiens was determined as 0%. On to `Cc1ncsc1-c1ccc(CNC(=O)[C@@H]2C[C@@H](O)CN2C(=O)[C@@H](NC(=O)COCCOc2ccc(Nc3ncc(C(F)(F)F)c(NCc4cccc(N(C)S(C)(=O)=O)c4)n3)cc2)C(C)(C)C)cc1`, for which the maximal effect (Emax) in the assay listed under Homo sapiens came to 99%. Consider `CN(c1cccc(CNc2nc(Nc3ccc(OCCCOCCC(=O)NCCOc4cccc5c4C(=O)N(C4CCC(=O)NC4=O)C5=O)cc3)ncc2C(F)(F)F)c1)S(C)(=O)=O` (stereo unspecified), for which the Emax in the assay filed under Homo sapiens amounted to 99%. For the molecule `CN(c1cccc(CNc2nc(Nc3ccc(OCCOCCOCCC(=O)NCCOc4cccc5c4C(=O)N(C4CCC(=O)NC4=O)C5=O)cc3)ncc2C(F)(F)F)c1)S(C)(=O)=O` (stereo unspecified), the Emax in the assay filed under Homo sapiens was 99%. In “cells”, this molecule yielded a DC50 of 0.0267 µM. For the molecule `CN(c1cccc(CNc2nc(Nc3ccc(OCCOCCOCCOCCOCCC(=O)NCCOc4cccc5c4C(=O)N(C4CCC(=O)NC4=O)C5=O)cc3)ncc2C(F)(F)F)c1)S(C)(=O)=O` (stereo unspecified), in the assay listed under Homo sapiens, the Emax came to 87%. Regarding `Cc1ncsc1-c1ccc(CNC(=O)[C@@H]2C[C@@H](O)CN2C(=O)[C@@H](NC(=O)COCCCOc2ccc(Nc3ncc(C(F)(F)F)c(NCc4cccc(N(C)S(C)(=O)=O)c4)n3)cc2)C(C)(C)C)cc1`, the Emax in the assay filed under Homo sapiens amounted to 99%. `Cc1ncsc1-c1ccc(CNC(=O)[C@@H]2C[C@@H](O)CN2C(=O)[C@@H](NC(=O)CCOCCOc2ccc(Nc3ncc(C(F)(F)F)c(NCc4cccc(N(C)S(C)(=O)=O)c4)n3)cc2)C(C)(C)C)cc1`: the Emax in the assay listed under Homo sapiens worked out at 99%. Also, in the assay “cells”, the DC50 was determined as 0.0033 µM.
